The record followed here is paper PMC4686831, “Identification of an allosteric binding site for RORγt inhibition” (Nature Communications, 2015).

Test [1] deals with T1, RORγt-LBD (Homo sapiens, UniProt P51449).
T1 construct: leader […]; made in house; host or cells: BL21(DE3) E. coli
T1 sequence (P51449 259-518): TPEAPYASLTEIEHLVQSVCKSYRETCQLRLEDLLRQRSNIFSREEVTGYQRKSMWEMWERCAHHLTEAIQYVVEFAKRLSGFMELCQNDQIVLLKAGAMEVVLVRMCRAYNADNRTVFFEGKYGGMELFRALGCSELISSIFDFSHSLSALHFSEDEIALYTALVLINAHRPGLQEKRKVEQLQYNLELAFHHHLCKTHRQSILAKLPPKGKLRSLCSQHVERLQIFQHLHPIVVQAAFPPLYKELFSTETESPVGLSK
Nature of the test: RORγt-LBD SRC-1 cofactor FRET assay. The class given is biochemical.
Protocol: The potency of small-molecule RORγt ligands was then assessed by monitoring their effect on the association of a LXXLL-motif-containing SRC-1 peptide. Compound (10 mM dimethylsulphoxide (DMSO) stock) was serially diluted in threefold steps using an Agilent Bravo liquid handler. […] Compounds were allowed to incubate with receptor for 15 min and then 5 μl of peptide in detection buffer or detection buffer alone were added. Detection buffer (5 × ) consists of 50 mM Tris-HCL pH 7.0, 50 mM potassium chloride, 1 mM EDTA, 0.1% delipidated bovine serum albumin, 1 mM DTT and 20 nM streptavidin-APC (PerkinElmer). […] The plate was then incubated overnight at 4 °C. The following morning the plate was warmed to room temperature and read using an Envision plate reader (PerkinElmer). […] The per cent activity of each dilution was determined as the ratio of background corrected signal to the background corrected signal of wells receiving only DMSO. IC50 values were determined by fitting per cent activity data to a four-parameter logistic dose–response equation in GraphPad Prism (GraphPad Software).

The target in test [2] is T1, RORγt-LBD. Nature of the test: RORγt-LBD AlexaFluor-647-labelled MRL-871 competitive binding assay. Particulars: 100 nM probe; mean±s.d.; read-out: MRL-871 AlexaFluor Probe Competition IC50. As to the method: The plate was then incubated for 15 min at room temperature. […] TR-FRET intensity in the presence of RORγt was corrected for background and the KD determined using the One-site specific binding equation in Graph Pad Prism. […] IC50 values were determined by fitting per cent activity data to a four-parameter logistic dose–response equation in GraphPad Prism.

The target of another test is T2, RORγt-GAL4 (Homo sapiens, UniProt P51449).
T2 construct: expressed in transfected cells; host or cells: HEK293T
Nature of the test: Chimeric RORγt-GAL4 luciferase reporter assay in HEK293T cells. The class given is cell-based. Particulars: mean±s.d.

Test [3] deals with IL-17 production in human PBMCs. Nature of the test: PBMC Th17 polarization and IL-17 production assay. The class given is cell-based. Particulars: 96 h, 4 days, mean±s.d., read-out: hPBMC IL17A IC50. As to the method: Test compounds were prepared as 10 mM stocks in DMSO and serially diluted 1:3 to provide an eight-concentration titration. […] Stimulatory cytokines were added to final concentrations of 25 ng ml^−1 IL-1B, 10 ng ml^−1 IL-23, 0.5 ng ml^−1 IL-2 and 10 ng ml^−1 IL-6 (all cytokines from R&D Systems). In addition, T-Activator CD3/28 Dynabeads (Invitrogen) were added to a concentration of 100,000 beads per ml. The stimulated cells were immediately dispensed into the assay plate containing serially diluted compound at a volume of 200 μl cells per well. Cell plates were then incubated at 37 °C and 5% CO2 for 4 days. Culture media (100 μl) was collected from each well and IL-17 expression was measured by enzyme-linked immunosorbent assay (R&D Systems) according to the manufacturer's instructions. Cell viability was assessed by the addition of 100 μl of CellTiter-Glo (Promega) to each well of the cell assay plate followed by luminescence detection on an Envision plate reader (PerkinElmer).

T2 sequence (P51449 97-518): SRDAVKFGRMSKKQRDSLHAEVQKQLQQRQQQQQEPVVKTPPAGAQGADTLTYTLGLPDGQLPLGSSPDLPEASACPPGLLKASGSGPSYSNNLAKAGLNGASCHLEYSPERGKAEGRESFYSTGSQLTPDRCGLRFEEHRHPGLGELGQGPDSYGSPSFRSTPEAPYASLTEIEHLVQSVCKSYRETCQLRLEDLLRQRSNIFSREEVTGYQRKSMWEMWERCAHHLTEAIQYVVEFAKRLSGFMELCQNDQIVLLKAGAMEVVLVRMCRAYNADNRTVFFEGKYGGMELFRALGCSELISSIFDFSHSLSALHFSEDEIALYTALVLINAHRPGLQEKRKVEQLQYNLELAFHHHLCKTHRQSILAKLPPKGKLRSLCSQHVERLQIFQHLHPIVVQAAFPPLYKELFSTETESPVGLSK
Protocol for RORγt-GAL4: This vector, along with the GAL4 UAS-luciferase reporter vector pGL4.31 (Promega), was used to transfect HEK293T cells. […] Following transfection, cells were transferred to one T75 flask and incubated overnight at 37 °C and 5% CO2. […] Cells were collected and resuspended at 0.8 × 10^6 cells per ml in DMEM high-glucose media with 10% FBS. To each well of the plate was added 25 μl of cell suspension and the cells incubated overnight at 37 °C and 5% CO2. After 20–22 h, the plates were brought to room temperature and 25 μl of Steady-Glo luciferase reagent (Promega) was added to each well. The luminescent signal was measured on an Envision plate reader.

Consider `CC1(C(=O)O)CC=C(c2nn(C(=O)c3c(Cl)cccc3C(F)(F)F)c3cccc(F)c23)CC1` (centres unmarked) [MRL-673], for which, on RORγt-LBD [1] (in both the biochemical and cellular assays), the “weaker potency relative to MRL-367” value amounted to 10 fold. Also, the 50% inhibitory concentration (IC50) on RORγt-LBD [1] (mean±s.d., read-out: SRC1 Cofactor FRET IC50) came out at 21.8 ± 6.7 nM; on RORγt-LBD [2], 26.4 ± 13 nM; against RORγt-GAL4, 279 ± 137 nM; in test [3], 142 ± 64 nM.
